Test results published in BigSolDB 2.1.

CC(=O)N[C@@H](CCC(N)=O)C(=O)O
solubility (mole fraction)
Details | 283.15 K | 288.15 K | 293.15 K | 298.15 K | 303.15 K | 308.15 K | 313.15 K | 318.15 K | 323.15 K
in 2-butanone | 0.000381 | 0.000395 | 0.000425 | 0.000451 | 0.000479 | 0.000516 | 0.000564 | 0.000606 | 0.000658
in acetone | 0.00016 | 0.000192 | 0.000232 | 0.000275 | 0.000312 | 0.000342 | 0.000389 | 0.000422 | 0.000475
in acetonitrile | 0.000116 | 0.000128 | 0.000139 | 0.000152 | 0.000165 | 0.000179 | 0.000194 | 0.000205 | 0.000217
in ethanol | 0.000347 | 0.000389 | 0.000461 | 0.000543 | 0.000618 | 0.000685 | 0.000768 | 0.000845 | 0.000935
in ethyl acetate | 0.000101 | 0.000136 | 0.000186 | 0.000222 | 0.000271 | 0.000323 | 0.000362 | 0.000402 | 0.000431
in isobutanol | 0.000288 | 0.000309 | 0.000354 | 0.000415 | 0.000464 | 0.000527 | 0.000587 | 0.000635 | 0.000707
in methanol | 0.000974 | 0.00112 | 0.00132 | 0.00149 | 0.00176 | 0.00206 | 0.00243 | 0.00281 | 0.00318
in methyl acetate | 0.000141 | 0.000167 | 0.000201 | 0.000245 | 0.000277 | 0.000315 | 0.000351 | 0.000401 | 0.000445
in n-butanol | 8.9e-05 | 0.000102 | 0.000144 | 0.000193 | 0.000246 | 0.000314 | 0.000372 | 0.000439 | 0.000516
in n-propanol | 0.000371 | 0.000405 | 0.000434 | 0.000471 | 0.000498 | 0.00053 | 0.000564 | 0.000594 | 0.000637
in sec-butanol | 0.000347 | 0.000395 | 0.000452 | 0.000501 | 0.000554 | 0.000605 | 0.000661 | 0.000705 | 0.000757
in water | 0.00214 | 0.00233 | 0.00265 | 0.00297 | 0.00358 | 0.0043 | 0.00492 | 0.00587 | 0.00767
